Values quoted from earlier work in patent US11752097B2, “N-acetylcysteine compositions and methods” (Endo Ventures Limited, priority 2020, dated 2023).
Where two headings read alike, the source gives them in different places. Values belong to the compound of their own block, whether it stands above or below them.

What was measured:
[1] = system: acetaminophen-overdose-induced hepatotoxicity; conditions: in vivo
[2] = Cu^2+
[3] = Cd^2+
[4] = Hg^2+
[5] = Ni^2+
[6] = Fe^3+
[7] = Zn^2+
[8] = Mn^2+
[9] = Cr^3+
[10] = Co^2+
[11] = ingestion of 10-15 g in a single dose
[12] = not given; remark: listed apart in the source
[13] = not given; remark: listed apart in the source
[14] = not given; remark: listed apart in the source
[15] = pH 7.4, 37° C.; reaction with Nitroxyl (HNO)
[16] = pH 7, RT; reaction with Hydroxyl radical (^•OH)
[17] = pH 7.4, 25° C.
[18] = ambient light
[19] = pH 7, 25° C.
[20] = pH 7.4, 37° C.
[21] = pH 7.4, RT
[22] = pH 7, RT; reaction with Superoxide anion (O2^•−)
[23] = following intravenous administration
[24] = 25° C. and 0.1 mol · dm^−3 ionic strength (KNO3)
[25] = 37° C. and 0.15 mol · dm^−3 ionic strength (NaCl)
[26] = 25° C. and 0.12 mol · dm^−3 ionic strength (NaClO4)

Structure (SMILES): CC(=O)N[C@H](CS)C(=O)O (single isomer, unassigned) [D-isomer of acetylcysteine]
Activity of isomer (prevention of hepatotoxicity) [1]: not prevent hepatotoxicity
Activity of isomer (prevention of hepatotoxicity) ([1]; listed as D-isomer): inactive

Complex formation constant (log K) ([2]; conditions not given): 18.80
Complex formation constant (log K) ([3]; conditions not given): 16.46
Complex formation constant (log K) ([4]; conditions not given): 21.80
Complex formation constant (log K) ([5]; conditions not given): 18.62
Complex formation constant (log K) ([6]; conditions not given): 25.10
Complex formation constant (log K) ([7]; conditions not given): 16.50
Complex formation constant (log K) ([8]; conditions not given): 14.04
Complex formation constant (log K) ([9]; conditions not given): 23.40
Complex formation constant (log K) ([10]; conditions not given): 16.31
Structure (SMILES): O=C(O)CN(CCN(CC(=O)O)CC(=O)O)CC(=O)O [EDTA, Ethylenediaminetetraacetic acid]

Structure (SMILES): CC(=O)Nc1ccc(O)cc1 [acetaminophen, Acetaminophen]
time to hepatic damage after overdose [11]: 2 to 5 days

experimental redox potential (in the cytosol): −289 mV
Structure (SMILES): N[C@@H](CCC(=O)N[C@@H](CS)C(=O)NCC(=O)O)C(=O)O [Glutathione]

Complex formation constant (log K) ([2]; conditions not given): 21.53
Complex formation constant (log K) ([3]; conditions not given): 19.31
Complex formation constant (log K) ([4]; conditions not given): 27.00
Complex formation constant (log K) ([5]; conditions not given): 20.32
Complex formation constant (log K) ([6]; conditions not given): 28.60
Complex formation constant (log K) ([7]; conditions not given): 18.75
Complex formation constant (log K) ([8]; conditions not given): 15.60
Complex formation constant (log K) ([10]; conditions not given): 18.40
Structure (SMILES): O=C(O)CN(CCN(CC(=O)O)CC(=O)O)CCN(CC(=O)O)CC(=O)O [DTPA, diethylenetriaminepentaacetic acid]

Solubility: volume of alcohol for 1 gram ([12]; 1 gram in alcohol): 4 mL
Solubility: volume of water for 1 gram ([12]; 1 gram in water): 5 mL
Solubility in chloroform ([12]; chloroform): insoluble
Solubility in ether ([12]; ether): insoluble
Reaction with contact materials ([13]; glass, plastic, aluminum, anodized aluminum, chromed metal and stainless steel): does not react
half-life (t1/2) ([14]; following an intravenous administration): 5.7 h
administered acetylcysteine excreted in the urine unchanged ([14]; in vivo): 20-30%
Complex formation constant (log K) [2, 24]: 9.02
Complex formation constant (log K) [2, 25]: 6.64
redox potential (relative to Glutathione (reduced GSH/oxidized GSSG) system as a reference standard): +63 mV
Light stability [18]: stable in ambient light
Complex formation constant (log K) [3, 24]: 7.25
Complex formation constant (log K) [4, 24]: 11.23
Complex formation constant (log K) [5, 26]: 5.02
Complex formation constant (log K) [5, 25]: 4.86
Complex formation constant (log K) [6, 26]: 10.58
Complex formation constant (log K) [7, 24]: 7.04
Complex formation constant (log K) [7, 25]: 6.23
Complex formation constant (log K) [8, 25]: 3.64
Complex formation constant (log K) [9, 26]: 8.26
Complex formation constant (log K) [10, 26]: 4.18
Complex formation constant (log K) [10, 25]: 4.28
Structure (SMILES): CC(=O)N[C@@H](CS)C(=O)O [Acetylcysteine, N-acetyl-L-cysteine]
Reaction of solutions with contact materials ([13]; contact with rubber, some metals (particularly iron and copper surfaces), and/or autoclaving): discoloration and hydrogen sulfide generation
Rate constant [15]: 500000 M⁻¹ s⁻¹
Rate constant [16]: 1.36e+10 M⁻¹ s⁻¹
Rate constant [17]: 0.85 ± 0.09 M⁻¹ s⁻¹
Rate constant [19]: (1.36 ± 0.2) × 10^4 M^−1 s^−1
Rate constant [20]: 415 ± 10 M⁻¹ s⁻¹
Rate constant ([20]; reaction with Peroxynitrite): 415 ± 10 M⁻¹ s⁻¹
Rate constant [21]: ~1e+07 M⁻¹ s⁻¹
Activity of isomer (prevention of hepatotoxicity) [1]: active
Rate constant [22]: 68 ± 6 M⁻¹ s⁻¹
Potential adverse reactions [23]: acute flushing and erythema of the skin, and anaphylactoid reactions
